Source: patent US20170042962A1, “AGENT FOR PREVENTING OR AM[…] ENDOTHELIAL MALFUNCTION” (KYOWA HAKKO BIO CO., LTD., priority 2012, published 2017)

System: HUVEC
Experiment: NO production (nitrite, NO2, in culture supernatant by HPLC) after adding samples to HUVEC
Format: cell-based, human
Details: citrulline final concentration 0.3 mM, 24-hour culture, vs control (PBS)
Procedure: The cells were cultured in at 37° C., in 5% CO2 incubator, and used for experiment after 4 to 6 passages. Citrulline and reduced glutathione were obtained from Kyowa Hakko Bio.
A cell suspension (0.45 mL) with the adjusted initial cell concentration of 5×10^5 cells/mL was inoculated in a 24-well plate (IWAKI).
Media with the sole addition of solvent (PBS) were used as a control group. After 24-hour culture, the cell culture (100 μL) was centrifuged at 12,000 rpm for 10 minutes, and the concentration of nitrite (NO2), which is the stable NO metabolite, in culture supernatant was quantified by HPLC (ENO-20, EICOM).

## NC(=O)NCCC[C@H](N)C(=O)O [citrulline, L-citrulline]
  effect on NO production (nitrite concentration in culture supernatant): no effect
